Key:
human JAK3 = molecular target: T1, human JAK3 (Homo sapiens, UniProt P52333); assay: Alphascreen tyrosine kinase enzyme assay, JAK3 kinase domain; type: biochemical; conditions: read-out: JAK3 IC50_nM
T1 construct: The kinase domain of human JAK3 was amplified; GST (N); made in house; host or cells: Sf9 insect cells (baculovirus)
Procedure, shortened: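 GST-affinity-purified human JAK3 kinase domain (baculovirus/Sf9) was pre-incubated 20 min with compound ([…]) in HEPES pH 7.5 buffer with MgCl2, vanadate and Tween 20. Biotinylated peptide substrate ([…]) and ATP were then added; phosphotyrosine was detected by AlphaScreen PY100 acceptor and streptavidin donor beads after 2–3 h.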

BaF3 wild-type cells = assay: Cellular screening, BaF3 wild-type cells, Alamar Blue; type: cell-based; conditions: Mus musculus, 40 hr, read-out: BAF3wt IC50_nM
Procedure, shortened: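 Cells were cultured in DMEM with 10% FCS and 10% WEHI 3B conditioned medium, and suspensions were prepared at 1.1× final (50,000–200,000 cells/mL). Compounds from 20 μM dilution plates were added at 10× final and incubated for 40 hr at 37° C, 5% CO2. Alamar Blue was then added for 4–6 hours and read at 544 nm.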

CTLL2 = assay: Cellular screening, CTLL2 cells, Alamar Blue; type: cell-based; conditions: Mus musculus, CTLL-2, read-out: CTLL2 IC50_nM
Procedure, shortened: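 CTLL2 cells in late log phase incubated with compound for 40 hr at 37° C, 5% CO2. Viability then read at 544 nm after a further 4-6 hours with Alamar Blue.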

T1 sequence (P52333 822-1111 limits assumed): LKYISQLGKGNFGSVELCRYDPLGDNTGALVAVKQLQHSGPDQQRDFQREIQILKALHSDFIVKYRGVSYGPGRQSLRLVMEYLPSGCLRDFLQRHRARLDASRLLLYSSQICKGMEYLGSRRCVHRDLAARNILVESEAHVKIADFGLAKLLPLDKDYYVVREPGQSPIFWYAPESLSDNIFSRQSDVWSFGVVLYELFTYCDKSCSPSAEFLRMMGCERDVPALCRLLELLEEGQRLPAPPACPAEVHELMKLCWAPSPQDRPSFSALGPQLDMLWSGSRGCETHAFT

Structure (SMILES) | IC50 (human JAK3) | IC50 (BaF3 wild-type cells) | IC50 (CTLL2)
COC(=O)COCC(=O)Nc1ccc(Sc2nc(Nc3ccc(N4CCOCC4)cc3)ncc2C)cc1 [Compound 189, methyl 2-(2-(4-(5-methyl-2-(4-morpholinophenylao)pyrimidin-4-ylthio)phenylao)-2-oxoethoxy)acetate] | < 0.5 µM | < 20 µM | > 20 µM
C=CC(=O)Nc1ccc(Sc2ccnc(Nc3ccccc3O)n2)cc1 [Compound 279, N-(4-(2-(2-hydroxyphenylao)pyrimidin-4-ylthio)phenyl)acrylamide] | < 0.1 µM | < 20 µM | < 20 µM
C=CC(=O)Nc1ccc(Sc2nc(Nc3cccc(O)c3)ncc2C)cc1 [Compound 281, N-(4-(2-(3-hydroxyphenylao)-5-methylpyrimidin-4-ylthio)phenyl)acrylamide] | < 0.1 µM | < 20 µM | < 1 µM
C=CC(=O)Nc1ccc(Sc2nc(Nc3ccc(O)cc3)ncc2C)cc1 [Compound 282, N-(4-(2-(4-hydroxyphenylao)-5-methylpyrimidin-4-ylthio)phenyl)acrylamide] | < 0.1 µM | < 20 µM | < 1 µM
C=CC(=O)Nc1ccc(Sc2nc(Nc3ccc(OC)c(O)c3)ncc2C)cc1 [Compound 283, N-(4-(2-(3-hydroxy-4-methoxyphenylao)-5-methylpyrimidin-4-ylthio)phenyl)acrylamide] | < 0.1 µM | < 20 µM | < 1 µM
C=CC(=O)Nc1ccc(Sc2nc(Nc3ccc4c(c3)OCO4)ncc2C)cc1 [Compound 284, N-(4-(2-(benzo[d][1,3]dioxol-5-ylao)-5-methylpyrimidin-4-ylthio)phenyl)acrylamide] | < 0.1 µM | < 20 µM | < 1 µM
C=CC(=O)Nc1ccc(Sc2nc(Nc3cccc(OC(F)(F)F)c3)ncc2C)cc1 [Compound 289, N-(4-(5-methyl-2-(3-(trifluoromethoxy)phenylao)pyrimidin-4-ylthio)phenyl)acrylamide] | < 0.1 µM | > 20 µM | < 1 µM
C=CC(=O)Nc1ccc(Sc2nc(Nc3ccc(N4CCC(C(=O)OCC)CC4)cc3)ncc2C)cc1 [Compound 292, ethyl 1-(4-(4-(4-acrylamidophenylthio)-5-methylpyrimidin-2-ylao)phenyl)piperidine-4-carboxylate] | < 0.1 µM | > 20 µM | < 5 µM
C=CC(=O)Nc1ccc(Sc2nc(Nc3ccc(CNS(C)(=O)=O)cc3)ncc2C)cc1 [Compound 294, N-(4-(5-methyl-2-(4-(methylsulfonamidomethyl)phenylao)pyrimidin-4-ylthio)phenyl)acrylamide] | < 0.1 µM | > 20 µM | < 1 µM
C=CC(=O)Nc1ccc(Sc2nc(Nc3ccc(N4CCS(=O)(=O)CC4)cc3)ncc2C)cc1 [Compound 298, N-{4-[(2-{[4-(1,1-dioxo-1λ^6,4-thiomorpholin-4-yl)phenyl]ao}-5-methylpyrimidin-4-yl)sulfanyl]phenyl}prop-2-enamide] | < 0.1 µM | < 20 µM | < 1 µM
C=CC(=O)Nc1ccc(Sc2nc(Nc3cccc(OCCCO)c3)ncc2C)cc1 [Compound 301, N-(4-(2-(3-(3-hydroxypropoxy)phenylao)-5-methylpyrimidin-4-ylthio)phenyl)acrylamide] | < 0.1 µM | < 20 µM | < 1 µM
C=CC(=O)Nc1ccc(Sc2nc(Nc3ccc(N4CCOCC4)cc3)ncc2-c2ccccc2)cc1 [Compound 307, N-(4-(2-(4-morpholinophenylao)-5-phenylpyrimidin-4-ylthio)phenyl)acrylamide] | < 0.1 µM | > 20 µM | > 20 µM
Nc1ccc(Sc2nc(Nc3ccc(N4CCOCC4)cc3)ncc2I)cc1 [Compound 309, 4-(4-aophenylthio)-5-iodo-N-(4-morpholinophenyl)pyrimidin-2-ae] | < 0.5 µM | < 5 µM | < 1 µM
C=CC(=O)Nc1ccc(Sc2nc(Nc3ccc(N4CCOCC4)cc3)ncc2I)cc1 [Compound 313, N-(4-(5-iodo-2-(4-morpholinophenylao)pyrimidin-4-ylthio)phenyl)acrylamide] | < 0.1 µM | > 20 µM | < 5 µM
C=CC(=O)Nc1ccc(Sc2nc(Nc3ccc(N4CCOCC4)cc3)ncc2Cl)cc1 [Compound 315, N-(4-(5-chloro-2-(4-morpholinophenylao)pyrimidin-4-ylthio)phenyl)acrylmide] | < 0.1 µM | > 20 µM | < 1 µM
Nc1ccc(Sc2nc(Nc3ccc(N4CCOCC4)cc3)ncc2Cl)cc1 [Compound 318, 4-(4-aophenylthio)-5-chloro-N-(4-morpholinophenyl)pyrimidin-2-ae] | < 0.1 µM | < 20 µM | < 20 µM

Structure (SMILES) | IC50 (human JAK3) | IC50 (BaF3 wild-type cells) | IC50 (CTLL2)
C=C(CN1CCOCC1)C(=O)Nc1cccc(Sc2ccnc(Nc3ccc(N4CCOCC4)cc3)n2)c1 [Compound 328, 2-(morpholinomethyl)-N-(3-(2-(4-morpholinophenylao)pyrimidin-4-ylthio)phenyl)acrylamide] | < 0.1 µM | < 5 µM | < 5 µM
O=C(CCl)Nc1cccc(Sc2ccnc(Nc3ccc(N4CCOCC4)cc3)n2)c1 [Compound 332, 2-chloro-N-(3-(2-(4-morpholinophenylao)pyrimidin-4-ylthio)phenyl)acetamide] | < 0.1 µM | < 5 µM | < 5 µM
O=C(/C=C/Cl)Nc1ccc(Sc2ccnc(Nc3ccc(N4CCOCC4)cc3)n2)cc1 [Compound 342, (E)-3-chloro-N-(4-(2-(4-morpholinophenylao)pyrimidin-4-ylthio)phenyl)acrylamide] | < 0.1 µM | > 20 µM | < 20 µM
Cc1cnc(Nc2ccc(N3CCOCC3)cc2)nc1Sc1ccc(NC(=O)/C=C/Cl)cc1 [Compound 343, (E)-3-chloro-N-(4-(5-methyl-2-(4-morpholinophenylao)pyrimidin-4-ylthio)phenyl)acrylamide] | < 0.1 µM | < 20 µM | < 5 µM
CCC(=O)Nc1ccc(Sc2nc(Nc3ccc(N4CCOCC4)cc3)ncc2Cl)cc1 [Compound 347, N-(4-(5-chloro-2-(4-morpholinophenylao)pyrimidin-4-ylthio)phenyl)propionamide] | < 0.1 µM | > 20 µM | < 5 µM
C=CC(=O)Nc1ccc(Sc2ccnc(Nc3ccccc3)n2)cc1 [Compound 350, N-(4-(2-(phenylao)pyrimidin-4-ylthio)phenyl)acrylamide] | < 0.1 µM | > 20 µM | < 20 µM
C=CC(=O)Nc1ccc(Sc2ccnc(Nc3ccc(S(N)(=O)=O)cc3)n2)cc1 [Compound 352, N-(4-(2-(4-sulfamoylphenylao)pyrimidin-4-ylthio)phenyl)acrylamide] | < 0.1 µM | > 20 µM | < 20 µM
C=CC(=O)Nc1ccc(Sc2ccnc(Nc3ccc(Cl)cc3)n2)cc1 [Compound 353, N-(4-(2-(4-chlorophenylao)pyrimidin-4-ylthio)phenyl)acrylamide] | < 0.1 µM | > 20 µM | < 5 µM
C=CC(=O)Nc1ccc(Sc2ccnc(Nc3ccc(F)c(C#N)c3)n2)cc1 [Compound 354, N-(4-(2-(3-cyano-4-fluorophenylao)pyrimidin-4-ylthio)phenyl)acrylamide] | < 0.1 µM | < 20 µM | < 20 µM
C=CC(=O)Nc1ccc(Sc2ccnc(Nc3cccc(N4CCCC4)c3)n2)cc1 [Compound 355, N-(4-(2-(3-(pyrrolidin-1-yl)phenylao)pyrimidin-4-ylthio)phenyl)acrylamide] | < 0.1 µM | < 20 µM | < 5 µM
C=CC(=O)Nc1ccc(Sc2ccnc(Nc3cccc(C(=O)OC)c3)n2)cc1 [Compound 356, methyl 3-(4-(4-acrylamidophenylthio)pyrimidin-2-ylao)benzoate] | < 0.1 µM | < 20 µM | < 5 µM
C=CC(=O)Nc1ccc(Sc2ccnc(Nc3cccc([N+](=O)[O-])c3)n2)cc1 [Compound 361, N-(4-(2-(3-nitrophenylao)pyrimidin-4-ylthio)phenyl)acrylamide] | < 0.1 µM | > 20 µM | > 20 µM
C=CC(=O)Nc1ccc(Sc2ccnc(Nc3cccc(S(N)(=O)=O)c3)n2)cc1 [Compound 364, N-(4-(2-(3-sulfamoylphenylao)pyrimidin-4-ylthio)phenyl)acrylamide] | < 0.1 µM | < 20 µM | < 1 µM
C=CC(=O)Nc1ccc(Sc2ccnc(Nc3cccc(S(=O)(=O)N4CCN(C)CC4)c3)n2)cc1 [Compound 365, N-(4-(2-(3-(4-methylpiperazin-1-ylsulfonyl)phenylao)pyrimidin-4-ylthio)phenyl)acrylamide] | < 0.1 µM | < 20 µM | < 20 µM
C=CC(=O)Nc1ccc(Sc2ccnc(Nc3cccc(S(=O)(=O)NCc4ccccc4)c3)n2)cc1 [Compound 366, N-(4-(2-(3-(N-benzylsulfamoyl)phenylao)pyrimidin-4-ylthio)phenyl)acrylamide] | < 0.1 µM | < 20 µM | < 5 µM
C=CC(=O)Nc1ccc(Sc2ccnc(Nc3ccc(S(=O)(=O)N4CCOCC4)cc3)n2)cc1 [Compound 367, N-(4-(2-(4-(morpholinosulfonyl)phenylao)pyrimidin-4-ylthio)phenyl)acrylamide] | < 0.1 µM | < 20 µM | < 20 µM
